Legend:
KM12 = assay: NCI in vitro 60-cell drug screen (SRB assay); type: cell-based; conditions: KM12 (Colon cancer); 10^-5 molar concentration; 48 hours
UACC-62 = assay: NCI in vitro 60-cell drug screen (SRB assay); type: cell-based; conditions: UACC-62 (Melanoma); 10^-5 molar concentration; 48 hours
MDA-MB-435 = assay: NCI in vitro 60-cell drug screen (SRB assay); type: cell-based; conditions: MDA-MB-435 (Melanoma); 10^-5 molar concentration; 48 hours
MCF7 = assay: NCI in vitro 60-cell drug screen (SRB assay); type: cell-based; conditions: MCF7 (Breast cancer); 10^-5 molar concentration; 48 hours
M14 = assay: NCI in vitro 60-cell drug screen (SRB assay); type: cell-based; conditions: M14 (Melanoma); 10^-5 molar concentration; 48 hours
PC-3 [1] = assay: MTT assay for cell cytotoxicity; type: cell-based, human; conditions: Homo sapiens, 72 h, at least three independent experiments, read-out: MTT assay (IC50 ± SD) PC-3
Procedure: (§1) All of synthesis compounds were evaluated cell cytotoxicity by using MTT colorimetric assay on PC-3 and DU-145 cell lines. DU-145 and PC-3 are human hormone-refractory (androgen-independent) prostatic cancer cell lines from American Type Culture Collection (HTB-81™, ATCC, Rockville, MD)^125 and Bioresource Collection and Research Center (60122, BCRC, Taiwan)^126, respectively. Two of the "classical" cell lines were cultivated in RPMI-1640 medium supplemented with 5% fetal bovine serum (v/v), 100 U/mL penicillin, and […] streptomycin. Approximately 2 x 10^3 cells were seeded into each well of a 96-well plate and incubated in 5% CO2 at 37 °C for 24 h. To evaluate the in vitro cytotoxicity, all the synthetic compounds were dissolved in DMSO, prepared immediately before the experiments and diluted into the complete medium before being added to each well of a 96-well plate. Each compound was then added to the culture medium for designated various concentrations (0.15, 0.5, 1.5, 5, 15 µM). After 72 h, an amount of 100 µL of MTT (1 mg/mL) was added to each well, and the samples were incubated at 37 °C for 4 h. After removing the MTT solution, 100 µL of DMSO was added to each well and incubated at 37 °C for another 20 mins. The absorbency at 560 nm was measured by using an ELISA reader.
(§2) Results are expressed as mean values of at least three independent experiments. The IC50 values of testing compounds were described in Table 1. Table1. Effects of 10-Chloro-12H-thiochromeno[2,3-c]quinolin -12-one derivatives on cytotoxicity by MTT assay.

DU-145 = assay: MTT assay for cell cytotoxicity; type: cell-based, human; conditions: Homo sapiens, 72 h, at least three independent experiments, read-out: MTT assay (IC50 ± SD) DU-145
Procedure: as §1, §2

SW-620 = assay: NCI in vitro 60-cell drug screen (SRB assay); type: cell-based; conditions: SW-620 (Colon cancer); 10^-5 molar concentration; 48 hours
NCI-H23 = assay: NCI in vitro 60-cell drug screen (SRB assay); type: cell-based; conditions: NCI-H23 (Non-small cell lung cancer); 10^-5 molar concentration; 48 hours
HCT-116 = assay: NCI in vitro 60-cell drug screen (SRB assay); type: cell-based; conditions: HCT-116 (Colon cancer); 10^-5 molar concentration; 48 hours
SR = assay: NCI in vitro 60-cell drug screen (SRB assay); type: cell-based; conditions: SR (Leukemia); 10^-5 molar concentration; 48 hours
HS 578T = assay: NCI in vitro 60-cell drug screen (SRB assay); type: cell-based; conditions: HS 578T (Breast cancer); 10^-5 molar concentration; 48 hours
PC-3 [2] = assay: NCI in vitro 60-cell drug screen (SRB assay); type: cell-based; conditions: PC-3 (Prostate cancer); 10^-5 molar concentration; 48 hours
CCRF-CEM = assay: NCI in vitro 60-cell drug screen (SRB assay); type: cell-based; conditions: CCRF-CEM (Leukemia); 10^-5 molar concentration; 48 hours
NCI-H226 = assay: NCI in vitro 60-cell drug screen (SRB assay); type: cell-based; conditions: NCI-H226 (Non-small cell lung cancer); 10^-5 molar concentration; 48 hours
UACC-257 = assay: NCI in vitro 60-cell drug screen (SRB assay); type: cell-based; conditions: UACC-257 (Melanoma); 10^-5 molar concentration; 48 hours
A549/ATCC = assay: NCI in vitro 60-cell drug screen (SRB assay); type: cell-based; conditions: A549/ATCC (Non-small cell lung cancer); 10^-5 molar concentration; 48 hours
SK-MEL-28 = assay: NCI in vitro 60-cell drug screen (SRB assay); type: cell-based; conditions: SK-MEL-28 (Melanoma); 10^-5 molar concentration; 48 hours
MDA-MB-231/ATCC = assay: NCI in vitro 60-cell drug screen (SRB assay); type: cell-based; conditions: MDA-MB-231/ATCC (Breast cancer); 10^-5 molar concentration; 48 hours
UO-31 = assay: NCI in vitro 60-cell drug screen (SRB assay); type: cell-based; conditions: UO-31 (Renal cancer); 10^-5 molar concentration; 48 hours
MDA-MB-486 = assay: NCI in vitro 60-cell drug screen (SRB assay); type: cell-based; conditions: MDA-MB-486 (Breast cancer); 10^-5 molar concentration; 48 hours
SF-295 = assay: NCI in vitro 60-cell drug screen (SRB assay); type: cell-based; conditions: SF-295 (CNS cancer); 10^-5 molar concentration; 48 hours
A498 = assay: NCI in vitro 60-cell drug screen (SRB assay); type: cell-based; conditions: A498 (Renal cancer); 10^-5 molar concentration; 48 hours
SF-268 = assay: NCI in vitro 60-cell drug screen (SRB assay); type: cell-based; conditions: SF-268 (CNS cancer); 10^-5 molar concentration; 48 hours
SK-MEL-2 = assay: NCI in vitro 60-cell drug screen (SRB assay); type: cell-based; conditions: SK-MEL-2 (Melanoma); 10^-5 molar concentration; 48 hours
786-0 = assay: NCI in vitro 60-cell drug screen (SRB assay); type: cell-based; conditions: 786-0 (Renal cancer); 10^-5 molar concentration; 48 hours
MOLT-4 = assay: NCI in vitro 60-cell drug screen (SRB assay); type: cell-based; conditions: MOLT-4 (Leukemia); 10^-5 molar concentration; 48 hours

SMILES	Growth percent (KM12) [%]	Growth percent (UACC-62) [%]	Growth percent (MDA-MB-435) [%]	Growth percent (MCF7) [%]	Growth percent (M14) [%]	IC50 (PC-3 [1]) [µM]	IC50 (DU-145) [µM]	Growth percent (SW-620) [%]	Growth percent (NCI-H23) [%]	Growth percent (HCT-116) [%]	Growth percent (SR) [%]	Growth percent (HS 578T) [%]	Growth percent (PC-3 [2]) [%]	Growth percent (CCRF-CEM) [%]	Growth percent (NCI-H226) [%]	Growth percent (UACC-257) [%]	Growth percent (A549/ATCC) [%]	Growth percent (SK-MEL-28) [%]	Growth percent (MDA-MB-231/ATCC) [%]	Growth percent (UO-31) [%]	other results
O=c1c2cc(Cl)ccc2sc2c(O)nc3ccccc3c12 [Compound 4, 10-Chloro-6-hydroxy-12H-thiochromeno[2,3-c]quinolin-12-one]	102.45	105.86	103.18	69.90	94.76	10.1 ± 1.81	> 15	101.39	88.96	86.20	96.00	113.28	91.90	107.78	99.58	108.36	95.25	116.59	81.80	76.44	Growth percent (MDA-MB-486): 100.33%; Growth percent (SF-295): 99.93%; Growth percent (A498): 107.74%; Growth percent (SF-268): 95.26%; Growth percent (SK-MEL-2): 103.04%; Growth percent (786-0): 99.76%; Growth percent (MOLT-4): 100.41%
CN(C)c1nc2ccccc2c2c(=O)c3cc(Cl)ccc3sc12 [Compound 6, 10-Chloro-6-dimethylamino-12H-thiochromeno[2,3-c]quinolin-12-one]	96.40	87.80	107.18	22.19	94.36	> 15	> 15	105.18	77.00	74.26	95.68	60.38	81.25	99.42	96.20	109.22	94.16	96.60	71.03	73.81	Growth percent (MDA-MB-486): 29.91%; Growth percent (SF-295): 48.82%; Growth percent (A498): 97.06%; Growth percent (SF-268): 77.86%; Growth percent (SK-MEL-2): 87.26%; Growth percent (786-0): 87.00%; Growth percent (MOLT-4): 97.52%
COc1nc2ccccc2c2c(=O)c3cc(Cl)ccc3sc12 [Compound 5, 10-Chloro-6-methoxy-12H-thiochromeno[2,3-c]quinolin-12-one]	98.03	96.15	103.83	65.39	88.40	3.89 ± 0.54	10.8 ± 6.55	103.05	80.14	89.48	88.18	66.51	92.46	106.56	98.57	108.09	100.46	112.31	78.12	74.69	Growth percent (MDA-MB-486): 103.54%; Growth percent (SF-295): 86.35%; Growth percent (A498): 96.29%; Growth percent (SF-268): 94.12%; Growth percent (SK-MEL-2): 105.52%; Growth percent (786-0): 99.15%; Growth percent (MOLT-4): 80.62%

— patent publication EP3002287B1, “Thiochromeno[2,3-c]quinolin-12-one derivatives and their use as topoisomerase inhibitors” (National Defense Medical Center, priority 2014, dated 2016)
